From patent US20110112110A1, “ANTIPROLIFERATIVE COMPOUNDS AND THERAPEUTIC USES THEREOF” (UNIVERSITA' DEGLISTUDI DI MILANO- BICOCCA, priority 2008, published 2011)

target: T1, Recombinant ALK kinase (Homo sapiens, UniProt Q9UM73); test: ELISA-based in vitro kinase assay (ALK kinase inhibitory activity); type: biochemical; conditions: not given
T1 construct: His tag (from pBlueBacHis2C vector); made in house; host or cells: insect cells, baculovirus
Description: (§1) Method: ELISA-Based In Vitro Kinase Assay
Recombinant ALK kinase was expressed in […] insect cells using the pBlueBacHis2C baculovirus vector system and purified using an anion exchange Fast Flow Q-sepharose column (Amersham-Pharmacia Biotech) followed by HiTrap™-nickel affinity column (Amersham-Pharmacia Biotech). Purified ALK protein was used to screen inhibitors in the ELISA-based kinase assay. […] Wells were then washed with 200 μl of wash buffer (PBS-Tween 0.05%) and left to dry for at least 2 hours at 37° C. The kinase reaction was performed in the presence of 50 mM Tris pH 7.5, 5 mM MnCl2, 5 mM MgCl2, 0.3 mM ATP and purified rALK in a total volume of 100 μl/well at 30° C. for 15 minutes. For inhibitor testing the reaction mix was preincubated with the inhibitor or solvent control for 10 mins at room temperature before transferring to the ELISA plate. After the reaction wells were washed 5 times with 200 μl of wash buffer. Phosphorylated peptide was detected using 100 μl/well of a mouse monoclonal anti-phosphotyrosine antibody (clone 4G10 UpstateBiotech Ltd) diluted 1:2000 in PBS+4% BSA. After 30 minutes incubation at room temperature the antibody was removed and wells were washed as described above. 100 μl of a secondary antibody (anti-mouse IgG, Horseradish Peroxidase linked whole antibody, Amersham Pharmacia Biotech) diluted 1:1000 in PBS+4% BSA was added to each well and the plate was incubated again for 30 minutes at room temperature before washing as above. The plate was developed using 100 μl/well TMB Substrate Solution (Endogen) and the reaction was stopped by adding an equal volume of H2SO4 0.36 M. Finally, the absorbance was read at 450 nm using an Ultrospec® 300 spectrophotometer (Amersham-Pharmacia Biotech).

T1 sequence (Q9UM73 19-1620): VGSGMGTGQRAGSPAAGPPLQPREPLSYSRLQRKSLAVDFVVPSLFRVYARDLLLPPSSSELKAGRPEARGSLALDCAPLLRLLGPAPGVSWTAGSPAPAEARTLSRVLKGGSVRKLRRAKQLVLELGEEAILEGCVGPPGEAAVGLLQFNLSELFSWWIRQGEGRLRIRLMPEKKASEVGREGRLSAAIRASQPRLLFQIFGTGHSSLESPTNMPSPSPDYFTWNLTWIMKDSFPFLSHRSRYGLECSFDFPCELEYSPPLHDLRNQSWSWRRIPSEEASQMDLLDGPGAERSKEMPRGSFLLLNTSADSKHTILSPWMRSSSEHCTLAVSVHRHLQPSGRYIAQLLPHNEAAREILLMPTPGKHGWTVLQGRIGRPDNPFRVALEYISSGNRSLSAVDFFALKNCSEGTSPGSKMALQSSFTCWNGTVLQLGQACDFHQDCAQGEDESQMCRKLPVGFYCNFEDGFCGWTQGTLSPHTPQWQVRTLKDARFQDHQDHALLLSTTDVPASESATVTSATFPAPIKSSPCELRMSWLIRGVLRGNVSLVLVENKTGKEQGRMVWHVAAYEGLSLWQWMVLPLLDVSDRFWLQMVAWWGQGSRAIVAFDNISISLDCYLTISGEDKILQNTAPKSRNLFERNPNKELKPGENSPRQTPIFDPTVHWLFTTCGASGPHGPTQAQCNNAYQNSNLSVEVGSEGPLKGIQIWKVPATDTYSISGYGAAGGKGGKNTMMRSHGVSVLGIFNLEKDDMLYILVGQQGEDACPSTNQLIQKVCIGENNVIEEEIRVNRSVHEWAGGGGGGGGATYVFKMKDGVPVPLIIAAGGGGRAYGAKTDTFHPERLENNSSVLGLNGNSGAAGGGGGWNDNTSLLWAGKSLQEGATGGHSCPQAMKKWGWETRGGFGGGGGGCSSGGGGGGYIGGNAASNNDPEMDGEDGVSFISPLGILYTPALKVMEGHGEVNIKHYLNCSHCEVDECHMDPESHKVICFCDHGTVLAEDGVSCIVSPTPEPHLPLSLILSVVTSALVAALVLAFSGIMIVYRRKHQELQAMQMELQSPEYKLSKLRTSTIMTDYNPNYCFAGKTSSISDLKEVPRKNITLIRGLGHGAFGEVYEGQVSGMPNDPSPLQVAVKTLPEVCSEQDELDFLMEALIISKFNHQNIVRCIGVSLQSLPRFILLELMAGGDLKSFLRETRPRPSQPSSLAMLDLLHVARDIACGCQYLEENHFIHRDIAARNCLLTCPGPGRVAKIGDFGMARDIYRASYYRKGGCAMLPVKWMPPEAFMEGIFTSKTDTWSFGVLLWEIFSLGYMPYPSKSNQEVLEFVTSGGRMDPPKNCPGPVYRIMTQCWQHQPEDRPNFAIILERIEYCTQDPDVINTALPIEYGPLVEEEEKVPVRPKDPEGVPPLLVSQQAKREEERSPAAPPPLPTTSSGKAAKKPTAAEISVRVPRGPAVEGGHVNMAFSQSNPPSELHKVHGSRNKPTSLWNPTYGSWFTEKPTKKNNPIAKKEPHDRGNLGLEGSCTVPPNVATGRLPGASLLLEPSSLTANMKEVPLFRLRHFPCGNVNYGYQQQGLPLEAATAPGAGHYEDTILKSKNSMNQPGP

In order of falling IC50:
1. O=C(Nc1ncc(-c2ccc3c(c2)Cc2ccccc2-3)s1)c1ccccc1I [r87, N-(5-(9H-fluoren-7-yl)thiazol-2-yl)-2-iodobenzamide]  4.3 ± 0.3 µM
2. CN1CCN(Cc2ccc(C(=O)Nc3nc(-c4ccc(-c5csc(NC(=O)c6ccc(CN7CCN(C)CC7)cc6)n5)cc4)cs3)cc2)CC1 [r218, N,N′-(4,4′-(1,4-phenylene)bis(thiazolle-4,2-diyl))bis(4-((4-methylpiperazin-1-yl)methyl)benzamide)]  1.3 ± 0.5 µM
3. CC(=O)Nc1ncc(-c2ccc(-c3cnc(NC(C)=O)[nH]3)cc2)[nH]1 [r114, N,N′-(5,5′-(1,4-phenylene)bis(1H-imidazole-5,2-diyl))diacetamide]  0.75 ± 0.13 µM

same assay, conditions: purified rALK, 0.3 mM ATP, ALK peptide substrate, 30° C. 15 minutes; read-out: IC50 values on ALK

In order of falling IC50:
1. Cc1csc(-c2ccc(-c3csnn3)cc2)n1 [r78]  103 µM
2. Nc1nc(-c2ccc3c(c2)[nH]c2ccccc23)cs1 [r156, 4-(9H-Carbazol-2-yl)-thiazol-2-ylamine]  82 ± 9 µM
3. c1ccc(-c2ccc(-c3cncs3)nc2)nc1 [r113]  57 ± 5 µM
4. CCOC(=O)c1csc(-c2ccc(-c3csnn3)cc2)n1 [r80]  48 µM
5. Cc1nc(-c2ccc(-c3csc(-c4cnccc4C(F)(F)F)n3)cc2)no1 [r81]  46.5 µM
6. Nc1nc(-c2ccc(-c3cccnc3)cn2)cs1 [r121]  42 ± 3.3 µM
7. O=C(Nc1nc(-c2ccc(-c3cccnc3)cn2)cs1)c1ccccc1 [r122]  37 ± 2.7 µM
8. CN1CCN(C(=O)c2ccc(-c3ccc(-c4ccc(C(=O)N5CCN(C)CC5)o4)cc3)o2)CC1 [r237, (5-{4-[5-(4-Methyl-piperazine-1-carbonyl)-furan-2-yl]-phenyl}-furan-2-yl)-(4-methyl-piperazin-1-yl)-methasone]  31 ± 5.7 µM
9. COCCCNc1nc(-c2ccc(-c3ccccc3)cc2)cs1 [r43]  27.3 µM
10. Brc1ccccc1-c1ccc(-c2nccs2)nc1 [r116, 5-(2-bromophenyl)-2-(thiazol-2-yl)pyridine]  27 ± 1.6 µM
11. c1cc(-c2nc(-c3ccc4c(c3)OCCCO4)cs2)ccc1-c1csnn1 [r36]  27 µM
12. CC(C)(C)c1csc(-c2ccc(-c3csnn3)cc2)n1 [r79]  24 ± 1.5 µM
13. Nc1ccc(-c2ccc(-c3cncs3)c(Cl)c2)cn1 [r235, 5-(3-cloro-4-(tiazol-5-il)fenil)piridin-2-ammina]  21 ± 2.5 µM
14. O=C(O)c1ccc(-c2ccc(-c3ccc(C(=O)O)o3)cc2)o1 [r239, 5,5′-(1,4-phenylene)difuran-2-carboxylic acid]  20 ± 2.3 µM
15. O=C(c1ccc(Br)o1)N(C(=O)c1ccc(Br)o1)c1ccc(-c2ccc(-c3ncco3)nc2)cn1 [r201]  17 ± 1.5 µM
16. O=C(Nc1nc(-c2ccc3c(c2)[nH]c2ccccc23)cs1)c1ccc(-c2ccccc2)cc1 [r169]  17 ± 1.4 µM
17. c1ccc(-c2ccc(-c3csc(N4CCOCC4)n3)cc2)cc1 [r85]  16 ± 4.8 µM
18. O=C(Nc1nc(-c2ccc3c(c2)[nH]c2ccccc23)cs1)c1ccc(Br)o1 [r170, 5-Bromo-furan-2-carboxylic acid[4-(9H-carbazol-2-yl)-thiazol-2-yl]-amide]  14 ± 1.6 µM
19. Clc1cc(-c2cccnc2)ccc1-c1cncs1 [r120, 3-(3-Chloro-4-thiazol-5-yl-phenyl)-pyridine]  12 ± 1.2 µM
20. c1ccc(-c2ccc(-c3csc(-c4ccncc4)n3)cc2)cc1 [r83]  11.7 µM
21. O=C(Nc1nc(-c2ccc(-c3cccnc3)cn2)cs1)c1ccco1 [r124]  11 ± 0.72 µM
22. Nc1nc(-c2ccc3c(c2)Cc2ccccc2-3)cs1 [r84]  11 ± 1.3 µM
23. O=C(Nc1nc(-c2ccc3c(c2)[nH]c2ccccc23)cs1)c1ccccc1 [r158, N-[4-(9H-Carbazol-2-yl)-thiazol-2-yl]-benzamide]  10 ± 0.73 µM
24. Cc1ccc(-c2csc(-c3ccc(-c4csnn4)cc3)n2)c(C)c1 [r69]  9.3 ± 2.9 µM
25. O=[N+]([O-])c1ccc(-c2nc(-c3ccc(-c4csnn4)cc3)no2)cc1 [r75]  8.8 ± 0.85 µM
26. Clc1ccc(-c2csc(-c3ccc(-c4csnn4)cc3)n2)cc1Cl [r35]  7.7 ± 0.2 µM
27. O=C(Nc1ncc(-c2ccc(-c3cccnc3)cc2Cl)s1)c1ccc(Br)o1 [r128, 5-Bromo-furan-2-carboxylic acid[5-(2-chloro-4-pyridin-3-yl-phenyl)-thiazol-2-yl]-amide]  6.7 µM
28. Cc1ccc(-c2csc(-c3ccc(-c4csnn4)cc3)n2)cc1 [r70]  5.5 ± 2.3 µM
29. O=C(Nc1ccc(-c2ccc(-c3ncco3)nc2)cn1)c1ccc(Br)o1 [r200, 5-bromo-N-(5-(6-(oxazol-2-yl)pyridin-3-yl)pyridin-2-yl)furan-2-carboxamide]  4.8 ± 0.7 µM
30. N#C/C(=C\c1cccs1)c1nc(-c2ccc(-c3ccccc3)cc2)cs1 [r67]  4.7 ± 0.7 µM
31. CN1CCN(Cc2ccc(C(=O)Nc3ncc(-c4ccc(-c5cccnc5)cc4Cl)s3)cc2)CC1 [r127, N-[5-(2-Chloro-4-pyridin-3-yl-phenyl)-thiazol-2-yl]-4-(4-methyl-piperazin-1-ylmethyl)-benzamide]  4.6 µM
32. COc1ncc(-c2ccc(-c3cccnc3)cc2Cl)s1 [r262, 5-(2-cloro-4-(piridin-3-il)fenil)-2-metossitiazolo]  3.7 ± 0.5 µM
33. O=C(N/N=C/c1c[nH]c2ccccc12)c1cc(-c2ccc(-c3ccccc3)cc2)[nH]n1 [r66]  3.6 ± 0.5 µM
34. Fc1ccc(-c2csc(-c3ccc(-c4csnn4)cc3)n2)cc1F [r68]  3.1 ± 0.34 µM
35. O=c1[nH]c(-c2ccc3c(c2)[nH]c2ccccc23)cs1 [r233]  2.1 ± 0.7 µM
36. O=S(=O)(Cc1ccco1)Cc1nc(-c2ccc(-c3ccccc3)cc2)cs1 [r48]  1.6 ± 0.15 µM
37. O=C1Nc2ccc(Br)cc2/C1=N/Nc1nc(-c2ccc(-c3ccccc3)cc2)cs1 [r49]  1.5 ± 0.17 µM
38. c1cc(-c2ccc(-c3ccoc3)cc2)co1 [r236, 1,4-di(furan-3-yl)benzene]  1.3 ± 0.4 µM
39. CN1CCN(Cc2ccc(C(=O)Nc3nc(-c4ccc5c(c4)Cc4ccccc4-5)cs3)cc2)CC1 [r89]  1.3 ± 0.2 µM
40. c1ccc2c(-c3ncc(-c4ccc(-c5cnc(-c6cccc7ccccc67)o5)cc4)o3)cccc2c1 [r19]  1.2 µM

target: T2, BaF3 cells transformed with NPM/ALK (Homo sapiens, UniProt Q9UM73); test: Tritiated thymidine uptake cell proliferation assay; type: cell-based; conditions: read-out: IC50 values on the proliferation of BaF3 cells transformed with NPM/ALK; 72 h incubation, 3[H]-thymidine uptake
T2 construct: fused on or other part: P06748 (Nucleophosmin)
Description: Method: Tritiated Thymidine Uptake Cell Proliferation Assay
BaF3 cells, transformed with the oncogenic fusion protein NPM/ALK, were seeded in U-bottomed 96-well plates at 10 000 cells/well in a volume of 100 μL in supplemented medium. Serial dilutions of inhibitors were added to the appropriate wells and volumes adjusted to 200 μL. Controls were treated with the equivalent volume of vehicle, DMSO, alone. Plates were incubated at 37° C. for 72 h. ^3[H-]-thymidine (1 μCi/well) was added for the last 16 h of incubation. Cells were harvested on to glass filters and ^3[H]-thymidine incorporation was measured using a scintillation counter (1430 MicroBeta, Wallac, Turku, Finland).

T2 sequence (Q9UM73 whole entry, change not shown, the tested form may be a part): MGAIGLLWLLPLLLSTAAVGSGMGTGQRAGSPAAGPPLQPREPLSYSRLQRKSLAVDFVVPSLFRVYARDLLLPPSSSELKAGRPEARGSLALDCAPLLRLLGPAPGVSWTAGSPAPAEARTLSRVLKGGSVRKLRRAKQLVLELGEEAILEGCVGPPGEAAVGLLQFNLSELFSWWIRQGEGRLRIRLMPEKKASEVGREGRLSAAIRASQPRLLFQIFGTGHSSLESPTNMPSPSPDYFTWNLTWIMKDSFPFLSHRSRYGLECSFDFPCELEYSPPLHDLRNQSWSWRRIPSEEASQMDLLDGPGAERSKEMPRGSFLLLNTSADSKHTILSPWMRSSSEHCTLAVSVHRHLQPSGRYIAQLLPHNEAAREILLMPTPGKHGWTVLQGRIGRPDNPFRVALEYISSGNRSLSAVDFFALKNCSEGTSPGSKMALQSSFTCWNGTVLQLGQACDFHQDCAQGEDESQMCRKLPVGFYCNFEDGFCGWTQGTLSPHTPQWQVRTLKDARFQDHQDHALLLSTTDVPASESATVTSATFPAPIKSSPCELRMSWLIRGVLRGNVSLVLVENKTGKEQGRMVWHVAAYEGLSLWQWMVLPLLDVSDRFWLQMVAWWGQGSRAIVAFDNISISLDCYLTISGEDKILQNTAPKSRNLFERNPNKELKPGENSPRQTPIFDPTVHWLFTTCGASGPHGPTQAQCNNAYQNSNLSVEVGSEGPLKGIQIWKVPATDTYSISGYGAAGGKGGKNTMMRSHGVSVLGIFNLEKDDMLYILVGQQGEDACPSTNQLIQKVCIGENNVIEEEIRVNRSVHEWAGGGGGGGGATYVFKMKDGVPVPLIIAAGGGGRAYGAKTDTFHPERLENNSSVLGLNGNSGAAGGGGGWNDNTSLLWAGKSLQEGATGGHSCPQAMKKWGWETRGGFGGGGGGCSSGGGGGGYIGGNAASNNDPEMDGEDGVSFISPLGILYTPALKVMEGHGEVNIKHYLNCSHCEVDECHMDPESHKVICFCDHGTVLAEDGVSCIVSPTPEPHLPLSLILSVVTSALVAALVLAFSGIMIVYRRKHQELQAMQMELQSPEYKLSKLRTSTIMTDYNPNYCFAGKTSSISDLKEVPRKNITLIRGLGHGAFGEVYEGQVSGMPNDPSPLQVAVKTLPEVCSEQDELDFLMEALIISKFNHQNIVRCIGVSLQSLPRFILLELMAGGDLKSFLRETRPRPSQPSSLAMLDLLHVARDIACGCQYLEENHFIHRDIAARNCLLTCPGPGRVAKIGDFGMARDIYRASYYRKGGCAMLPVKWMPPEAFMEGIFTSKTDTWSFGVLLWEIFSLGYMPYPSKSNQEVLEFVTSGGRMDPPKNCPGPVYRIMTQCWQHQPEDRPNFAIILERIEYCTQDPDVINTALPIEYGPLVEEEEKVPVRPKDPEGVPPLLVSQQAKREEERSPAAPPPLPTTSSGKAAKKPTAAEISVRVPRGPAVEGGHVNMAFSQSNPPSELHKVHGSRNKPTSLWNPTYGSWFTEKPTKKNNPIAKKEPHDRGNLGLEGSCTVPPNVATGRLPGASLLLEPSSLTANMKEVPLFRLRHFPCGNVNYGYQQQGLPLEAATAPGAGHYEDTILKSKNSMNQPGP

In order of rising GI50:
1. O=C(N/N=C/c1c[nH]c2ccccc12)c1cc(-c2ccc(-c3ccccc3)cc2)[nH]n1 [r66]  4.8 µM
2. Cc1csc(-c2ccc(-c3csnn3)cc2)n1 [r78]  7.6 µM
3. O=C1Nc2ccc(Br)cc2/C1=N/Nc1nc(-c2ccc(-c3ccccc3)cc2)cs1 [r49]  12 µM
4. CCOC(=O)c1csc(-c2ccc(-c3csnn3)cc2)n1 [r80]  31 µM
5. CC(C)(C)c1csc(-c2ccc(-c3csnn3)cc2)n1 [r79]  33 µM
6. CN1CCN(Cc2ccc(C(=O)Nc3nc(-c4ccc5c(c4)Cc4ccccc4-5)cs3)cc2)CC1 [r89]  36 µM

target: T3, Recombinant Abl T315I (Homo sapiens, UniProt P00519, T315I); test: ELISA-based in vitro kinase assay (Abl T315I mutant kinase inhibitory activity); type: biochemical; conditions: purified Abl T315I, 0.3 mM ATP, peptide substrate
T3 construct: His tag (from pBlueBacHis2C vector); made in house; host or cells: Sf9 insect cells, baculovirus
Description: as §1
Recombinant Abl T315I protein was expressed in Sf9 cells using the pBlueBacHis2C baculovirus expression vector. Abl T315I was purified using an anion exchange Fast Flow Q-sepharose column (Amersham-Pharmacia Biotech) followed by HiTrap™-nickel affinity column (Amersham-Pharmacia Biotech). Purified Abl T3151 was used in the ELISA-based kinase assay to screen inhibitors as described above. The kinase reaction was performed in the presence of 50 mM Tris pH 7.5, 1 mM MnCl2, 5 mM MgCl2, 0.3 mM ATP, peptide substrate ([…]) and purified Abl T315I.

In order of rising IC50:
1. CC(=O)Nc1ncc(-c2ccc(-c3cnc(NC(C)=O)[nH]3)cc2)[nH]1 [r114, N,N′-(5,5′-(1,4-phenylene)bis(1H-imidazole-5,2-diyl))diacetamide]  2.1 µM
2. O=C(Nc1ncc(-c2ccc3c(c2)Cc2ccccc2-3)s1)c1ccccc1I [r87, N-(5-(9H-fluoren-7-yl)thiazol-2-yl)-2-iodobenzamide]  6.43 ± 0.43 µM
